Experimental data published in patent US7605269B2, “Thiophene derivatives as Sphingosine-1-phosphate-1 receptor agonists” (Actelion Pharmaceuticals Ltd., priority 2005, dated 2009).

Assays:
[1] = biological target: recombinant human S1P1 receptor (Homo sapiens, UniProt P21453); assay: GTPγS assay to determine EC50 values; assay type: biochemical; conditions: 35S-GTPγS binding, membrane preparations of CHO cells expressing recombinant human S1P1 receptor
Procedure: The pH is 7.4. Test compounds are dissolved and diluted in 100% DMSO and pre-incubated at room temperature for 30 min in 150 μl of the above assay buffer, in the absence of ^35S-GTPγS. After addition of 50 μl of ^35S-GTPγS, the assay is incubated for 1 h at room temperature. […] Membrane-bound ^35S-GTPγS is measured with a TopCount from Packard Biosciences.
Specific binding is determined by subtracting non-specific binding from maximal binding. Maximal binding is the amount of cpm bound to the Multiscreen plate in the presence of 10 μM of S1P. Non-specific binding is the amount of binding in the absence of an agonist in the assay.

circulating lymphocytes = assay: Assessment of in vivo efficacy: circulating lymphocytes after oral administration; set-up: species or system rat; conditions: 6 h after oral administration of 10 mg/kg, normotensive male Wistar rats, compared to vehicle-treated group

recombinant human S1P1 receptor, sequence (P21453 whole entry): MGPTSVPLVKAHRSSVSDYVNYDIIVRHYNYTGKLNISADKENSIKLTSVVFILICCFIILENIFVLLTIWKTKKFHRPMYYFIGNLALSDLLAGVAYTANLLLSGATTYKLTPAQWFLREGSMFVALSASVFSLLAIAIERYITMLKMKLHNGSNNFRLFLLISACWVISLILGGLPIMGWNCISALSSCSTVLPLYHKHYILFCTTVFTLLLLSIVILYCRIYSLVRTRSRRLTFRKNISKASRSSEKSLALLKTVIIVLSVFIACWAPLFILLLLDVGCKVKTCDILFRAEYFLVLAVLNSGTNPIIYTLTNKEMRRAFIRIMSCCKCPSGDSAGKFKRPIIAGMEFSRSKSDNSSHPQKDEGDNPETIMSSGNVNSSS

| SMILES | EC50 [1] [nM] | Lymphocyte counts (circulating lymphocytes) [%] |
| --- | --- | --- |
| Cc1cc(-c2noc(-c3sc(C)c4c3C[C@@H]3[C@H]4C3(C)C)n2)cc(C)c1OCCCN1CCCC1C(=O)O (stereo partly drawn) [Example 32, 1-(3-{2,6-dimethyl-4-[5-((1aS,5aR)-1,1,2-trimethyl-1,1a,5,5a-tetrahydro-3-thia-cyclopropa[a]pentalen-4-yl)-[1,2,4]oxadiazol-3-yl]-phenoxy}-propyl)-pyrrolidine-2-carboxylic acid] | 8.8 |  |
| Cc1sc(-c2nc(-c3ccc(OC[C@H](O)CO)cc3)no2)c2c1[C@H]1[C@@H](C2)C1(C)C [Example 6, (2R)-3-{4-[5-((1aS,5aR)-1,1,2-trimethyl-1,1a,5,5a-tetrahydro-3-thia-cyclopropa[a]pentalen-4-yl)-[1,2,4]oxadiazol-3-yl]-phenoxy}-propane-1,2-diol] | 12 |  |
| Cc1cc(-c2noc(-c3sc(C)c4c3C[C@@H]3[C@H]4C3(C)C)n2)cc(C)c1OCCCNCCO [Example 27, 2-(3-{2,6-dimethyl-4-[5-((1aS,5aR)-1,1,2-trimethyl-1,1a,5,5a-tetrahydro-3-thia-cyclopropa[a]pentalen-4-yl)-[1,2,4]oxadiazol-3-yl]-phenoxy}-propylamino)-ethanol] | 6.1 |  |
| Cc1cc(-c2noc(-c3sc(C)c4c3C[C@@H]3[C@H]4C3(C)C)n2)cc(C)c1OCC(CO)CO [Example 19, 2-{2,6-dimethyl-4-[5-((1aS,5aR)-1,1,2-trimethyl-1,1a,5,5a-tetrahydro-3-thia-cyclopropa[a]pentalen-4-yl)-[1,2,4]oxadiazol-3-yl]-phenoxymethyl}-propane-1,3-diol] | 1.2 | −56 |
| Cc1cc(-c2noc(-c3sc(C)c4c3C[C@@H]3[C@H]4C3(C)C)n2)cc(C)c1OCCCN [Example 24, 3-{2,6-dimethyl-4-[5-((1aS,5aR)-1,1,2-trimethyl-1,1a,5,5a-tetrahydro-3-thia-cyclopropa[a]pentalen-4-yl)-[1,2,4]oxadiazol-3-yl]-phenoxy}-propylamine] | 4.8 |  |

More lines, main results first:

| EC50 [1] [nM] | SMILES | Lymphocyte counts (circulating lymphocytes) [%] |
| --- | --- | --- |
| 1.6 | Cc1cc(-c2nc(-c3sc(C)c4c3C[C@@H]3[C@H]4C3(C)C)no2)cc(C)c1O [Example 38, 2,6-dimethyl-4-[3-((1aS,5aR)-1,1,2-trimethyl-1,1a,5,5a-tetrahydro-3-thia-cyclopropa[a]pentalen-4-yl)-[1,2,4]oxadiazol-5-yl]-phenol] |  |
| 1.1 | Cc1cc(-c2nc(-c3sc(C)c4c3C[C@@H]3[C@H]4C3(C)C)no2)cc(C)c1OCCO [Example 39, 2-{2,6-dimethyl-4-[3-((1aS,5aR)-1,1,2-trimethyl-1,1a,5,5a-tetrahydro-3-thia-cyclopropa[a]pentalen-4-yl)-[1,2,4]oxadiazol-5-yl]-phenoxy}-ethanol] |  |
| 1.4 | Cc1cc(-c2nc(-c3sc(C)c4c3C[C@@H]3[C@H]4C3(C)C)no2)cc(C)c1OCC(CO)CO [Example 43, 2-{2,6-dimethyl-4-[3-((1aS,5aR)-1,1,2-trimethyl-1,1a,5,5a-tetrahydro-3-thia-cyclopropa[a]pentalen-4-yl)-[1,2,4]oxadiazol-5-yl]-phenoxymethyl}-propane-1,3-diol] |  |
